Patent US9657351B2, “MRNA-based gene expression for personalizing patient cancer therapy with an MDM2 antagonist” (Hoffmann-La Roche Inc., priority 2013, dated 2017)
Several values for one entry are separate records, joined by “and”; a condition that tells them apart may be missing. Equal entries are not always repeated.

Assays:
[1] = tested on: Ki-67-positive tumor cells; assay: NP21280 solid tumor trial, tumor biopsy biomarker (Ki67); type: in vivo, human; settings: p=2.62×10−2
Procedure: The predictive mRNA signature is also evaluated in two solid tumor trials (FIG. 1). In trial NP21280 30 patients with pretreatment and C1D5 tumor biopsy samples are evaluated; and in NP22890 20 patients with pretreatment and C1D8 tumor biopsy samples are evaluated (Table 6). In both clinical trials, a biomarker package that enabled assessment of p53 pathway activation is assessed (p53 IHC, p21 IHC, MDM2 mRNA, and Ki67), MDM2 inhibition activates the P53 pathway and decreases cell proliferation.

MDM2 mRNA = assay: NO21279 pharmacodynamic response, MDM2 mRNA by quantitative real-time PCR in leukemia cells; type: in vivo, human
Procedure: The performance of the MDM2 antagonist predictive mRNA response signature is tested in the clinical setting with specimens from the NO21279 leukemia trial (FIG. 1). 28 AML patients treated at the MTD are enrolled and completed pretreatment and C1D10 (cycle 1, day 10) sampling. […] The clinical endpoint in NO21279 was divided into 4 categories: Complete Response (CR), Morphologic Leukemia-Free State (MLFS), Hematologic Improvement (HI), and Progressive Disease (PD). Blood leukemia samples and bone marrow biopsy samples were collected at baseline screening, after a single dose (cycle 1 day 2, C1D2) and on last day of dosing (cycle 1, day 10, C1D10) and isolated via MACS® separation^11. The early pharmacodynamic effect of MDM2 antagonism in blood leukemia samples was assessed by measuring MDM2 RT PCR change between baseline and C1D10. Global gene expression profiles were generated for the peripheral blood leukemia cells and bone marrow biopsy samples obtained at baseline, C1D2 and C1D10.
MDM2 mRNA concentrations were assessed at Roche Molecular Systems by quantitative real-time PCR with 50 ng total RNA from MACs isolated leukemia cells from blood. TaqMan (Invitrogen, Carlsbad, Calif., USA) probes were designed to detect MDM2 mRNA and the reference mRNA, beta-glucuronidase, simultaneously using two different fluorescent reporters. Gene expression profiles were generated using Affymetrix U133 Plus 2.0 microarrays. Probset ID's for the each of the four genes on said U133 Plus 2.0 microarray are: 209375_s_at (for XPC); 205386_s_at and 211832_s_at (MDM2); 211692_s_at (BBC3); 207039_at and 211156_at (CDKN2A). […] The predictive patient signature score according to the present invention is then calculated using the following equation: patient signature score=GMDM2+GXPC+GBBC3−GCDKN2A. […] For example, for the patient data reported in Table 9 (Example 5), G is log 2 of the mRNA probeset expression of the relevant gene as measured with Affymetrix U133 Plus 2.0 microarrays.

D-283MED = assay: COMPOUND A In Vitro Assay; type: cell-based; settings: Homo sapiens, D283 Med, tissue NA, TP53 Wild type
Source text: (§1) To generate an MDM2 antagonist therapy predictive signature, the response of MDM2 antagonist therapy in vitro with gene expression profiling (FIG. 1) is combined. A bank of 287 human cancer cell lines, collectively termed the Cell Lines for Oncology/Chugai ACcumulative Tumour EncycLopedia (CELLO/CACTEL), representing a broad array of diverse human cancer tumor types are subject to evaluation using several high-throughput genomic technology platforms. The mutational status of nucleic acids from each cell line is determined by exome sequencing. Messenger RNA (mRNA) expression levels at baseline, prior to MDM2 antagonist therapy, are obtained via RNA sequencing. MDM2 antagonist therapy COMPOUND A, sometimes referred to herein as RG7112, responses are obtained by assays known to those skilled in the art such as RNA sequencing and microarray measurement using Gene Chip Human Genome U133 Plus 2.0 Array. The MDM2 therapy responses are obtained by high throughout screening assays. Depending on their responses to COMPOUND A these cell lines are classified as either sensitive, defined as IC50<=1, or resistant, defined as IC50>=10.
(§2) 281 cells are treated with MDM2 antagonists and the IC50 (therapy response) is generated. The cell lines span a broad range of tumor cell types of derivation.

SW780 = assay: COMPOUND A In Vitro Assay; type: cell-based; settings: Homo sapiens
Source text: as §1, §2

Hep3B = assay: COMPOUND A In Vitro Assay; type: cell-based; settings: Homo sapiens, Liver, TP53 Mutant
Source text: as §1, §2

DLD-1 = assay: COMPOUND A In Vitro Assay; type: cell-based; settings: Homo sapiens, Intestine, large, colon, TP53 Mutant
Source text: as §1, §2

HCC38 = assay: COMPOUND A In Vitro Assay; type: cell-based; settings: Homo sapiens, Breast, mammary gland, TP53 Mutant
Source text: as §1, §2

MDA-MB-468 = assay: COMPOUND A In Vitro Assay; type: cell-based; settings: Homo sapiens, Breast, mammary gland, TP53 Mutant
Source text: as §1, §2

ES2 = assay: COMPOUND A In Vitro Assay; type: cell-based; settings: Homo sapiens, ES-2, Ovary, TP53 NA
Source text: as §1, §2

NCI-H1993 = assay: COMPOUND A In Vitro Assay; type: cell-based; settings: Homo sapiens, Lung, TP53 Mutant
Source text: as §1, §2

MFE-280 = assay: COMPOUND A In Vitro Assay; type: cell-based; settings: Homo sapiens, Uterus, endometrium, TP53 Mutant
Source text: as §1, §2

HDLM-2 = assay: COMPOUND A In Vitro Assay; type: cell-based; settings: Homo sapiens, Lymphocyte B, TP53 Mutant
Source text: as §1, §2

COLO 201 = assay: COMPOUND A In Vitro Assay; type: cell-based; settings: Homo sapiens, Intestine, large, colon, TP53 Mutant
Source text: as §1, §2

SW948 = assay: COMPOUND A In Vitro Assay; type: cell-based; settings: Homo sapiens, Intestine, large, colon, TP53 Mutant
Source text: as §1, §2

P21 = settings: NP22890; at C1D8; as previously reported; cited from earlier work
P53 = assay: NP21280 solid tumor trial, tumor biopsy biomarker (p53 IHC); type: in vivo, human; settings: at C1D10, p=2.88×10−3
Procedure: The predictive mRNA signature is also evaluated in two solid tumor trials (FIG. 1). […] In both clinical trials, a biomarker package that enabled assessment of p53 pathway activation is assessed (p53 IHC, p21 IHC, MDM2 mRNA, and Ki67), MDM2 inhibition activates the P53 pathway and decreases cell proliferation.

clinical = settings: both, human, in vivo, AUC0-24, median

Question: What does the source list for CCOc1cc(C(C)(C)C)ccc1C1=N[C@@](C)(c2ccc(Cl)cc2)[C@@](C)(c2ccc(Cl)cc2)N1C(=O)N1CCN(CCCS(C)(=O)=O)CC1 [COMPOUND A]?
Answer: Ki-67-positive tumor cells change from baseline [1]: decreased; median MDM2 mRNA expression increase over baseline (MDM2 mRNA; C1D10 vs baseline, IQR 1.62-4.59, NO21279): 2.46 times; MDM2 mRNA (RT-PCR) fold change over baseline (C1D10), median increase (MDM2 mRNA; all patients, IQR 1.62-4.59): 2.46x (IQR:; MDM2 mRNA (RT-PCR) fold change over baseline (C1D10) (MDM2 mRNA; individual AML patients (no. 1-28), NO21279, blood leukemia cells, listed as RG7112): 2.23 fold and 5.67 fold and 5.05 fold and 9.66 fold and 1.79 fold and 23.00 fold and 2.01 fold and 1.72 fold and 5.07 fold and 3.20 fold and 4.35 fold and 1.27 fold and 2.51 fold and 0.96 fold and 1.69 fold and 2.26 fold and 1.52 fold and 3.88 fold and 2.65 fold and 5.11 fold and 9.46 fold and 1.00 fold and 1.59 fold and 1.67 fold and 3.00 fold; IC50 (D-283MED): 1.2 µM; IC50 (SW780; SW780, SW780, Urinary, bladder, TP53 Wild type): 0.97 µM; IC50 (SW780; SW780, SW780 cells): 1 µM; IC50 (Hep3B): 6.7 µM; IC50 (DLD-1): 5.1 µM; IC50 (HCC38): 12 µM; IC50 (MDA-MB-468): 10 µM; IC50 (ES2): 3.3 µM; IC50 (NCI-H1993): 7.7 µM; IC50 (MFE-280): 23 µM; IC50 (HDLM-2): 33 µM; IC50 (COLO 201): 10 µM; IC50 (SW948): 19 µM; P21 concentration change from baseline (P21): significantly increase; P53 concentration change from baseline (P53): significantly increase; AUC(0-t) (clinical): 190 µg·h/mL
